Test results: ChEMBL document CHEMBL1150324, “Support vector machines classification of hERG liabilities based on atom types” (Bioorg Med Chem, 2008)

Experiments:
[1] = biological target: Voltage-gated inwardly rectifying potassium channel KCNH2 (Homo sapiens, UniProt Q12809); assay: (§1) Inhibition of human ERG expressed in CHO cells by whole cell patch clamp technique; details: for pIC50: human
[2] = biological target: hERG (KCNH2) (Homo sapiens, UniProt Q12809); assay: as §1; details: human
[3] = CHO cells that express human ERG

Voltage-gated inwardly rectifying potassium channel KCNH2, sequence (Q12809 whole entry): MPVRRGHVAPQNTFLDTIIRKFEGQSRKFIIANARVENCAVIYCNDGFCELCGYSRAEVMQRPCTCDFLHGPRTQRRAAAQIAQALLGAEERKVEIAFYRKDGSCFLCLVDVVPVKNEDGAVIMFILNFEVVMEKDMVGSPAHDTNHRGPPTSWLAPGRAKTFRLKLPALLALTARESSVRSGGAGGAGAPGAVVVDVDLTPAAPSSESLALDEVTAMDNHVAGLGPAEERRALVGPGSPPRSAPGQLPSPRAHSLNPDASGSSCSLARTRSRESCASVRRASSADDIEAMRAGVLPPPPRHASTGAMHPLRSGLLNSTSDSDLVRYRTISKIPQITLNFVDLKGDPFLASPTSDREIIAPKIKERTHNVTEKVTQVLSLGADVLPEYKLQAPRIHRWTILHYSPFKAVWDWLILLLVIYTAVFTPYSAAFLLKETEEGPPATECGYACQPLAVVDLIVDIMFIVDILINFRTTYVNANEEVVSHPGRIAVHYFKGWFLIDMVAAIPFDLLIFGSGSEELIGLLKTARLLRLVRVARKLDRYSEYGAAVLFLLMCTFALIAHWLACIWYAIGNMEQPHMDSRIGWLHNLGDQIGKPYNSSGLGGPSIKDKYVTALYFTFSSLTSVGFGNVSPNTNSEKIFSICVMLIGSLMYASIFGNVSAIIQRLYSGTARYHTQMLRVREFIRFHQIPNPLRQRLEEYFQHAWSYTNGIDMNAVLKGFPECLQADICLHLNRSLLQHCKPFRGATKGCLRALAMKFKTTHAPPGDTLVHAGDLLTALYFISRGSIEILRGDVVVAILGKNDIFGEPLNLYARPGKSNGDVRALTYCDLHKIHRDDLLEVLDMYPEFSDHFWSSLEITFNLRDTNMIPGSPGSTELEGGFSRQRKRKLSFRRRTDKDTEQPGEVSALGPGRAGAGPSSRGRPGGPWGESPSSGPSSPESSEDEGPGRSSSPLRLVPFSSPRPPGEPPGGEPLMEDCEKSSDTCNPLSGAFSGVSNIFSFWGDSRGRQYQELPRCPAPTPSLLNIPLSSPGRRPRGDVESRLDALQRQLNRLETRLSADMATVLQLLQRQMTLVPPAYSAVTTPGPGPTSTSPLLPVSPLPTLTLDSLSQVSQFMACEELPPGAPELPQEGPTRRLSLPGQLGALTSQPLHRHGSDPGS
hERG (KCNH2), sequence (Q12809 whole entry): as above

Structure (SMILES): CC[C@H]1OC(=O)[C@H](C)[C@@H](O[C@H]2C[C@@](C)(OC)[C@@H](O)[C@H](C)O2)[C@H](C)[C@@H](O[C@@H]2O[C@H](C)C[C@H](N(C)C)[C@H]2O)[C@](C)(OC)C[C@@H](C)C(=O)[C@H](C)[C@@H](O)[C@]1(C)O [CLARITHROMYCIN]
- pIC50 ([1]; cho): 4.23

Structure (SMILES): CCOC(=O)C1=C(C)NC(C)=C(C(=O)OC)C1c1cccc([N+](=O)[O-])c1 (configuration not stated) [NITRENDIPINE]
- IC50 [2, 3]: 10 µM

Structure (SMILES): O=C(OC1CC2CC3CC(C1)N2CC3O)c1c[nH]c2ccccc12 (configuration not stated) [MDL-74156]
- IC50 [1]: 5.89 µM

Structure (SMILES): COc1c(N2CCNC(C)C2)c(F)cc2c(=O)c(C(=O)O)cn(C3CC3)c12 (configuration not stated) [GATIFLOXACIN]
- IC50 [1]: 129 µM

Structure (SMILES): COc1ccc(C(=O)N2CCN(c3ccc4c(c3)CCC(=O)N4)CC2)cc1OC [VESNARINONE]
- pIC50 [1, 3]: 5.96

Structure (SMILES): CN1CCC[C@H]1c1cccnc1 [NICOTINE]
- pIC50 ([1]; cho): 3.61

Structure (SMILES): C[C@@H]1CN(c2c(F)c(N)c3c(=O)c(C(=O)O)cn(C4CC4)c3c2F)C[C@H](C)N1 [SPARFLOXACIN]
- pIC50 [1, 3]: 4.74

Structure (SMILES): COc1ccc(C2CCN(CC[C@H]3CCOc4ccccc43)CC2)cc1OC
- pIC50 ([1]; cho): 6.7

Structure (SMILES): Oc1ccc(CCN2CCC(Nc3nc4ccccc4n3Cc3ccc(F)cc3)CC2)cc1 [DESMETHEYLASTEMIZOLE]
- IC50 [1]: 0.001 µM

Structure (SMILES): CN(c1nccc(=O)[nH]1)C1CCN(c2nc3ccccc3n2Cc2ccc(F)cc2)CC1 [MIZOLASTINE]
- pIC50 ([1]; cho): 6.36

Structure (SMILES): COc1ccc(C2CCN(CC[C@H]3CCOc4ccccc43)CC2)cc1OC [TERIKALANT]
- IC50 ([2]; cho): 0.251 µM

Structure (SMILES): Cc1cc2c(s1)Nc1ccccc1N=C2N1CCN(C)CC1 [OLANZAPINE]
- pIC50 ([1]; cho): 6.74
